The text below walks through data of ChEMBL document CHEMBL1136726, “Synthesis and characterization of iodine-123 labeled 2beta-carbomethoxy-3beta-(4'-((Z)-2-iodoethenyl)phenyl)nortropane. A ligand for in vivo imaging of serotonin transporters by single-photon-emission tomography” (J Med Chem, 2003).

Assay [1] addresses T1, Sodium-dependent dopamine transporter (Homo sapiens, UniProt Q01959). As to the kind of experiment: In vitro competitive binding versus [N-methyl-3H]WIN-35428 in murine kidney cells transfected with cDNA for human dopamine transporter (DAT). It is filed as cell-based.
In assay [2] the target is T2, Sodium-dependent serotonin transporter (Homo sapiens, UniProt P31645). As to the kind of experiment: Binding affinity towards serotonin transporter (SERT).
T2 sequence (P31645 whole entry): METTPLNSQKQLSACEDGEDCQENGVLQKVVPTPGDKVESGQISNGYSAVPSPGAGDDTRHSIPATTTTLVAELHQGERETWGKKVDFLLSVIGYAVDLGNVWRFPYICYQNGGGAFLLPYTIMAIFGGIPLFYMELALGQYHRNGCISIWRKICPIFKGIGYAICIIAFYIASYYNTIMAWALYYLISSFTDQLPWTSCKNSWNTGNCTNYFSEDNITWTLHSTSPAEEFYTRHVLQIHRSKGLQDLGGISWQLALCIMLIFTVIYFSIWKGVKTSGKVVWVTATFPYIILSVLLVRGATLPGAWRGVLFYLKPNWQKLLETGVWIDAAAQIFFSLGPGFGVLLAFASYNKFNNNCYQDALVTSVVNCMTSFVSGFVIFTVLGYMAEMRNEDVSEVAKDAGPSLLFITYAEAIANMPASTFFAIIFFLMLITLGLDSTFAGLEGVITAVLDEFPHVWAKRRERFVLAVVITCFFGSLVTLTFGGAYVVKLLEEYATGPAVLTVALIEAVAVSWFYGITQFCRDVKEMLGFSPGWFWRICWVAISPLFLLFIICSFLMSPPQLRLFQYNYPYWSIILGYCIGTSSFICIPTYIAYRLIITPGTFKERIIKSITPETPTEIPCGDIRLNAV
Assay [3] addresses Sodium-dependent noradrenaline transporter (Homo sapiens, UniProt P23975). As to the kind of experiment: In vitro competitive binding versus [3H]- […] in murine kidney cells transfected with cDNA for human norepinephrine transporter (NET). It is filed as cell-based.
Assay [4] deals with T2, Sodium-dependent serotonin transporter. Briefly: In vitro competitive binding versus [3H]-citalopram in murine kidney cells transfected with cDNA for human serotonin transporter (SERT). It is filed as cell-based.
Assay [5] shares this target. Briefly: In vitro competitive binding versus [3H]citalopram in murine kidney cells transfected with cDNA for human serotonin transporter (SERT). It is filed as cell-based.
Assay [6] has the same target. As to the kind of experiment: Binding affinity towards serotonin transporter (SERT) by using [3H]paroxetine as radioligand.
For assay [7], the target named is T1, Sodium-dependent dopamine transporter. Briefly: Binding affinity towards dopamine transporter (DAT) by using [3H]WIN-35428 as radioligand.

T1 sequence (Q01959 whole entry): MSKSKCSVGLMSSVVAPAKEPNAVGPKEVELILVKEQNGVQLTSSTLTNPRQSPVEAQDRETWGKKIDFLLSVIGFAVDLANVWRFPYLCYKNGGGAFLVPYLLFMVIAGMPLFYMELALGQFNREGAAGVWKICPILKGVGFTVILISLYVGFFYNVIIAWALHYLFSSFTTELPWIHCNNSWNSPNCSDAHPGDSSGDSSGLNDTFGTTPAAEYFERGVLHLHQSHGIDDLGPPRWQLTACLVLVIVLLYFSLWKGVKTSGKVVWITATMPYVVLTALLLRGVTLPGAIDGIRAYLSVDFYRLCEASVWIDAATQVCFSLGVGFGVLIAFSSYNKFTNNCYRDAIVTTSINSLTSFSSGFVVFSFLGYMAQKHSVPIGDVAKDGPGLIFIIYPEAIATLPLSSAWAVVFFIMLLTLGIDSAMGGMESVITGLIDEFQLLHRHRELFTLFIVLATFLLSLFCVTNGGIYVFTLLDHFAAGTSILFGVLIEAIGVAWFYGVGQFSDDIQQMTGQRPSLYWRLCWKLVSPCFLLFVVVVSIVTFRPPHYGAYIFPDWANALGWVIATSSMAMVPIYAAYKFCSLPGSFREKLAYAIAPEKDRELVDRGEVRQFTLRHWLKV
Chain of Sodium-dependent noradrenaline transporter (P23975 whole entry): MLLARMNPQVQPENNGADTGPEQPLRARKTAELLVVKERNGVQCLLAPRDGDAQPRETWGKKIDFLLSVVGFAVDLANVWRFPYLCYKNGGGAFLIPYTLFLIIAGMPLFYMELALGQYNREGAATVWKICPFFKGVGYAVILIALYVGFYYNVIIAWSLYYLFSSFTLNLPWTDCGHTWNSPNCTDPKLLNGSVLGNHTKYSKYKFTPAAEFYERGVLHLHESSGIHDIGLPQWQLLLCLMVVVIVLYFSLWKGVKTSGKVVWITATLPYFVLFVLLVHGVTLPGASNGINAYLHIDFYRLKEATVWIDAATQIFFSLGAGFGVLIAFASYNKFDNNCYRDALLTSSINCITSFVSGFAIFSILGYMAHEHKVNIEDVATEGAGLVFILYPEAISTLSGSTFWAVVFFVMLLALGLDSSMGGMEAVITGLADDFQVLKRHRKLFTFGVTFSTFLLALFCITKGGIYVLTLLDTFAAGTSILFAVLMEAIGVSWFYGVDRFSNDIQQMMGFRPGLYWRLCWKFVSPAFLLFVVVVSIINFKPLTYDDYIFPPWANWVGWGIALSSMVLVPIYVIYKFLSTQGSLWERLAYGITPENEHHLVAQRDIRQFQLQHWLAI

In assay [1], `COC(=O)[C@@H]1C2CCC(C[C@@H]1c1ccc(I)cc1)N2` (stereo not given in full) returned a Ki of 0.12 nM. The concentration for half-maximal inhibition (IC50) in assay [2] was 0.36 nM.

For the molecule `COC(=O)[C@@H]1C2CCC(C[C@@H]1c1ccc(/C=C/I)cc1)N2` (stereo not given in full), the inhibitory constant (Ki) in assay [1] is 1.88 nM; in assay [3], 32 nM; in assay [4], 1.15 nM.

Take `COC(=O)[C@@H]1C2CC[C@H](C[C@@H]1c1ccc(I)cc1)N2C`: the Ki in assay [1] was 0.48 nM; in assay [3] it was 1.4 nM; in assay [5], 0.67 nM. Further, the IC50 in assay [2] was found to be 4.2 nM.

In assay [6], `C=Cc1ccc([C@H]2CC3CCC(N3)[C@H]2C(=O)CC)cc1` (stereo not given in full) returned a half-maximal inhibitory concentration (IC50) of 0.32 nM.

Molecule `C=C(C)c1ccc([C@H]2CC3CCC(N3)[C@H]2C(=O)CC)cc1` (stereo not given in full) gave an IC50 in assay [6] of 0.16 nM.

`C/C=C/c1ccc([C@H]2CC3CCC([C@H]2C(=O)OC)N3C)cc1` (stereo not given in full): the concentration for half-maximal inhibition (IC50) is 28 nM in assay [7] and 1.3 nM in assay [6].

With `C/C=C\c1ccc([C@H]2CC3CCC([C@H]2C(=O)OC)N3C)cc1` (stereo not given in full), the 50% inhibitory concentration (IC50) in assay [7] is 32 nM; in assay [6] it was 1.15 nM.

As a reminder, the Ki is a measure of affinity in units of concentration, obtained from inhibition or displacement. A lower Ki goes with a stronger hold on the target. A word on the IC50: it is the midpoint of a concentration-inhibition curve.
